Source: patent US20060205071A1, “Methods for ex-vivo expanding stem/progenitor cells” (priority 2003, published 2006)
“Also recorded” adds a separate entry of the source.

Legend:
[1] = test system: Hematopoietic stem/progenitor cells isolated from umbilical cord blood; assay: Ex vivo expansion of HSC with copper chelator in a gas permeable culture bag (static bioreactor); type: cell-based, human
Experimental: Hematopoietic stem/progenitor cells isolated from umbilical cord blood (UCB) mononuclear cells by magnetic activated cell sorting (MACS technology, Milteny, Bergisch-Gladbach, GmbH) were seeded in static bioreactors (gas permeable culture bags) at concentrations of 1×10^4 cells/ml in MEM-alpha with 10% Fetal Calf Serum (FCS) containing 50 ng/ml of the following cytokines: SCF, TPO, Flt-3, IL-6, with (TEPA) or without (control) added copper chelator tetraethylenepentamine (TEPA, Aldrich, Milwaukee Wis., USA) (5 μM), and incubated for at least three weeks in a 5% CO2 humidified incubator. […] Cell Cultures of Human Hematopoietic Stem/Progenitor Cells: Human umbilical cord blood cells were obtained from umbilical cord blood after normal full-term delivery (informed consent was given). MPB, or BM were obtained from donations (informed consent was given). Samples were either used fresh or collected and frozen according to well known cord blood cryopreservation protocol (Rubinstein et al. 1995) within 24 h postpartum for UCB or according to common practice regarding MPB and BM. Prior to cryopreservation, blood was sedimented for 30 minutes on […] Starch (hydroxyethyl starch) to remove most RBC. Prior to their use, the cells were thawed in Dextran buffer (Sigma, St. Louis, Mo., USA) containing 2.5% human serum albumin (HSA) (Bayer Corp. Elkhart, Ind., USA) and processed as described herein below. Following thawing, where indicated, the leukocyte-rich fraction was harvested and layered on Ficoll-Hypaque gradient (1.077 g/mL; Sigma Inc, St Louis Mo., USA), and centrifuged at 400X g for 30 minutes. The mononuclear cell fraction in the interface layer was then collected, washed three times, and re-suspended in phosphate-buffered saline (PBS) (Biological Industries, Bet HaEmek, Israel) containing 0.5% human serum albumin (HSA) (Bayer Corp. Elkhart, Ind., USA). The CD133^+ cell fraction was purified as follows: Either the mononuclear cell fraction was subjected to two cycles of immuno-magnetic separation using the “MiniMACS CD133 stem cell isolation kit” (Miltenyi Biotec, Auburn, Calif.) or the unfractionated preparation was isolated on the CliniMACS device using CD133^+ CliniMACS (Miltenyi Biotec, Auburn, Calif.) reagent, accordingly, following the manufacturer's recommendations (in the latter, the Ficoll-Hypaque gradient stage was omitted). The purity of the CD133^+ population thus obtained was 80-95%, as evaluated by flow cytometry. […]

[2] = test system: Hematopoietic stem/progenitor cells isolated from umbilical cord blood; assay: Long Term Culture-Colony Forming Cell (LTC-CFC) assay of bag-cultured HSC; type: cell-based, human
Experimental: FIGS. 1A-1C are a graphic representation of the ex-vivo expansion and inhibition of differentiation of stem cells in a static bioreactor. Hematopoietic stem/progenitor cells isolated from umbilical cord blood (UCB) mononuclear cells by magnetic activated cell sorting (MACS technology, Milteny, Bergisch-Gladbach, GmbH) were seeded in static bioreactors (gas permeable culture bags) at concentrations of 1×10^4 cells/ml in MEM-alpha with 10% Fetal Calf Serum (FCS) containing 50 ng/ml of the following cytokines: SCF, TPO, Flt-3, IL-6, with (TEPA) or without (control) added copper chelator tetraethylenepentamine (TEPA, Aldrich, Milwaukee Wis., USA) (5 μM), and incubated for at least three weeks in a 5% CO2 humidified incubator. […] CFUc frequency was calculated as number of CFUc per number of cells.
Self-Renewal Potential Evaluations: The self-renewal potential of stem cells was determined in vitro by long-term colony formation. […] The resulting colonies were scored after two weeks of incubation at 37° C. in a humidified atmosphere of 5% CO2 in air. […]
Calculations: Ex vivo expansion of TNC, CD133, CD133+CD34− cells and CFUc are reported either as cumulative numbers; number of cells per ml multiply by the final culture volume, or as fold-expansion; cumulative numbers divided by initial seeding cell number. CFUc frequency is calculated as number of colonies divided by cell number. […]

[3] = test system: cord-blood-derived, bone marrow-derived, and peripheral blood derived stem and progenitor cells; details: grown without a feeder layer; cited from earlier work
[4] = static bioreactor (VueLife FEP Teflon bag), compared with cells cultured without TEPA

For `NCCNCCNCCNCCN` [TEPA, tetraethylenepentamine], the “fold expansion of immature subpopulations of HSC (CD34+/CD38− and CD34+/lin−)” value ([1]; 5 μM TEPA, three weeks, static bioreactor (culture bag), vs cytokines without TEPA) was “dramatically increases; also recorded: predominance of undifferentiated CD34^+/CD38^− and CD34^+/lin^−”, the “fraction of self-renewing, undifferentiated cells” value ([1]; short and long term culture in a static bioreactor, compared with cytokine-only cultures) was “dramatically increased” and the “population of ex-vivo cultured stem and/or progenitor cells” value [1, 4] was “greatly expanded”. For the same molecule, the “LTC-CFC numbers (colonogenic potential, CFUs)” value ([2]; 5 μM TEPA vs control cells grown with cytokines but not TEPA) was “at least one order of magnitude; also recorded: predominance of CFUs”, the “functional characteristics (colonogenic potential)” value [2, 4] was “superior” and the “fraction of CD34+ cell” value [3] was “greatly enhanced”. For the same molecule, the long-term clonability [3] was “greatly enhanced”.
